System: ALK-transformed Ba/F3 cells
Experiment: Cell viability assay of Ba/F3 cells expressing ALK isoforms treated with ALK inhibitors
Assay type: cell-based, murine
Settings: cell viability after 72 hours; for IL-3-independent growth of ALK-transformed Ba/F3 cells: absence of IL-3, CellTiter-Glo; for growth in the presence of IL-3: presence of IL-3 (1 ng/ml)
Experimental: Ba/F3 cells were stably transduced with MSCV-ALK^variant-IRES-GFP constructs with a multiplicity of infection (MOI) of ˜0.26. Based on the MOI calculations, ˜78% of cells were uninfected, ˜20% of cells were infected with one virus particle, and ˜2% of cells were infected by more than one viral particle. Stably transduced Ba/F3 cells were cultured in RPMI medium supplemented with IL-3 (1 ng ml-1) and the transduction rate of 20% was validated using flow cytometry for GFP, that was co-expressed with the ALK variants. For the cell proliferation assay, transduced Ba/F3 cells were transferred into IL-3 depleted RPMI medium and cell growth was quantified every 2-4 days with a luminescence assay (#G7571, Promega). […] All drugs were suspended in DMSO. The cell viability was assessed after 72 hours by a luminescence assay CellTiter-Glo (#G7571, Promega). Results were normalized to growth of cells in a medium containing an equivalent volume of DMSO. The inhibition curve was determined with GraphPad Prism 6.0 software using the ‘log(inhibitor) vs. response variable slope’ non-linear regression model.

Compound	IL-3-independent growth of ALK-transformed Ba/F3 cells	growth in the presence of IL-3
Cc1cc(Nc2ncc(Cl)c(Nc3ccccc3S(=O)(=O)C(C)C)n2)c(OC(C)C)cc1C1CCNCC1 [ceritinib]	effectively inhibited	no effect
COc1cc(N2CCC(N3CCN(C)CC3)CC2)ccc1Nc1ncc(Cl)c(Nc2ccccc2S(=O)(=O)C(C)C)n1 [TAE-684, NVP-TAE684]	effectively inhibited	no effect
